Read-outs that look alike come from different tables or passages of the source.
How the values were obtained:
[1] = target: Human CB2R (Cannabinoid receptor 2) (Homo sapiens, UniProt P34972); assay: CB-2 in vitro cAMP (HTRF) assay; format: cell-based; settings: HEK cells, cAMP HTRF, 250 nM forskolin; mean where tested more than once; read-out: CB2 HEK_cAMP EC50
In short: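 Competitive HTRF read-out (d2-labelled cAMP vs cryptate antibody) quantifies cAMP in stably transfected HEK-293 cells, seeded the day before at 4E5 cells/mL. Stimulation buffer: HBSS, 5 mM HEPES, 0.1% BSA, 0.5 mM IBMX; forskolin prepared at 1.5 μM in buffer; compounds serially diluted 1/3 in DMSO.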

[2] = target: Human CB1R (Cannabinoid receptor 1) (Homo sapiens, UniProt P21554); assay: CB-1 in vitro cAMP (HTRF) assay; format: cell-based; settings: cAMP HTRF, 250 nM forskolin, mean where tested more than once
In short: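 Intracellular cAMP from HTRF ratio (d2-cAMP vs Eu-cryptate anti-cAMP), converted to nM via per-plate standards, in stable human CB1R HEK-293 cells.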

[3] = HEK cells, read-out: CB1 HEK_cAMP EC50

Chain of Human CB1R (Cannabinoid receptor 1) (P21554 whole entry): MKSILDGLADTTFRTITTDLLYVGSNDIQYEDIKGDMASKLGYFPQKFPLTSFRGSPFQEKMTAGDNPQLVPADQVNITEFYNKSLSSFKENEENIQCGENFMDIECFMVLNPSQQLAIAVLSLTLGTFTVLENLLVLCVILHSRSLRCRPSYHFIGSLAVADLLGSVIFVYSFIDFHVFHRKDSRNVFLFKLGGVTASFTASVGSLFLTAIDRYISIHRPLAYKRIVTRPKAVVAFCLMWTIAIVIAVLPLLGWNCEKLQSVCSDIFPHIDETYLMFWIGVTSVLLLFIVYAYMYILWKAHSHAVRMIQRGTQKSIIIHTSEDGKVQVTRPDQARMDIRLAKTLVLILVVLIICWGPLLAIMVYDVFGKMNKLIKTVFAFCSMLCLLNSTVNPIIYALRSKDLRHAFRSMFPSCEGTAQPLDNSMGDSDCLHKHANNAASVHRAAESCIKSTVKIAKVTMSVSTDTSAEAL
Chain of Human CB2R (Cannabinoid receptor 2) (P34972 whole entry): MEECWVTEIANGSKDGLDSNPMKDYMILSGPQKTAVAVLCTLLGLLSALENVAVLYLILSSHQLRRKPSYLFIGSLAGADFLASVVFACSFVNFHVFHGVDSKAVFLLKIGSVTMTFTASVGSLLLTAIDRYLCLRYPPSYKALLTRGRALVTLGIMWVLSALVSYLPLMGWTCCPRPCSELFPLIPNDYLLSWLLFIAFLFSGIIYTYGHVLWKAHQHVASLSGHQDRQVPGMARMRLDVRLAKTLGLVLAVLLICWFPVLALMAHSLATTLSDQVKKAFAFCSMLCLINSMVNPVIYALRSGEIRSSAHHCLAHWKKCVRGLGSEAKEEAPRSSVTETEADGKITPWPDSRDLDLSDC

Row | SMILES | EC50 [1] | EC50 [2, 3] | EC50 ([2]; CB1 HEK_cAMP EC50, HEK cells)
1 | Cc1ccc(C(c2ccc(Cl)cc2)c2ccc3nc(C4CC4)n(C4CCN(Cc5cccc(C(=O)O)c5)CC4)c3c2)cc1 (centres unmarked) [Example 100] | 6.3 µM | 0.0194 µM | 
2 | O=C(O)c1cccc(CN2CCC(n3c(C4CC4)nc4ccc(C(c5ccccc5)c5ccc(Cl)cc5)cc43)CC2)c1 (centres unmarked) [Example 101] | > 10 µM | 0.0285 µM | 
3 | O=C(OC[C@@H](O)[C@H](O)CO)N1CCC(n2c(C3CC3)nc3ccc(C(c4ccc(Cl)cc4)c4ccc(Cl)cc4)cc32)CC1 [Example 102] | 8.14 µM | 0.0333 µM | 
4 | NC(=O)c1cccc(CN2CCC(n3c(C4CC4)nc4ccc(C(c5ccc(Cl)cc5)c5ccc(Cl)cc5)cc43)CC2)n1 [Example 104] | 6 µM | 0.0121 µM | 
5 | NC(=O)c1ccc(CN2CCC(n3c(C4CC4)nc4ccc(C(c5ccc(Cl)cc5)c5ccc(Cl)cc5)cc43)CC2)cn1 [Example 105] | 8 µM | 0.0051 µM | 
6 | O=C(O)c1ccc(CN2CCC(n3c(C4CC4)nc4ccc(C(c5ccc(Cl)cc5)c5ccc(Cl)cc5)cc43)CC2)cn1 [Example 106] | > 10 µM | 0.0601 µM | 
7 | C=C(CO)c1nc2ccc(C(c3ccc(Cl)cc3)c3ccc(Cl)cc3)cc2n1C1CCN(S(=O)(=O)C(F)(F)F)CC1 [Example 118] | > 10 µM | 0.098 µM | 
8 | Clc1ccc(C(c2ccc(Cl)cc2)c2ccc3nc(C4CC4)n(C4CCOCC4)c3c2)cc1 [Example 119] | 6.74 µM | 0.0949 µM | 
9 | Clc1ccc(C(c2ccc(Cl)cc2)c2ccc3nc(C4CC4)n(CC4CCOCC4)c3c2)cc1 [Example 120] | 5.43 µM |  | 0.0249 µM
10 | NC(=O)c1cncc(CN2CCC(n3c(C4CC4)nc4ccc(C(c5ccc(Cl)cc5)c5ccc(Cl)cc5)cc43)CC2)c1 [Example 121] | 7.97 µM | 0.0051 µM | 
11 | NC(=O)c1ccc(CN2CCC(n3c(C4CC4)nc4ccc(C(c5ccc(Cl)cc5)c5ccc(Cl)cc5)cc43)CC2)nc1 [Example 122] | 9.1 µM | 0.0049 µM | 
12 | O=C(O)c1cncc(CN2CCC(n3c(C4CC4)nc4ccc(C(c5ccc(Cl)cc5)c5ccc(Cl)cc5)cc43)CC2)c1 [Example 123] | 7.5 µM | 0.0134 µM | 
13 | NC(=O)c1ccc(CN2CCC(n3c(C4CC4)nc4ccc(C(c5ccc(Cl)cc5)c5ccc(Cl)cc5)cc43)CC2)s1 [Example 126] | 7.8 µM | 0.0042 µM | 
14 | NC(=O)c1csc(CN2CCC(n3c(C4CC4)nc4ccc(C(c5ccc(Cl)cc5)c5ccc(Cl)cc5)cc43)CC2)c1 [Example 127] | > 10 µM | 0.005 µM | 
15 | O=C(O)c1ccc(CN2CCC(n3c(C4CC4)nc4ccc(C(c5ccc(Cl)cc5)c5ccc(Cl)cc5)cc43)CC2)s1 [Example 128] | 4.89 µM | 0.0069 µM | 
16 | O=C(O)c1csc(CN2CCC(n3c(C4CC4)nc4ccc(C(c5ccc(Cl)cc5)c5ccc(Cl)cc5)cc43)CC2)c1 [Example 130] | 8.1 µM | 0.0155 µM | 
17 | NC(=O)c1ccc(CN2CCC(n3c(C4CC4)nc4ccc(C(c5ccc(Cl)cc5)c5ccc(Cl)cc5)cc43)CC2)o1 [Example 131] | 6.5 µM | 0.008 µM | 
18 | O=C(O)c1ccc(Cn2c(C3CC3)nc3ccc(C(c4ccc(Cl)cc4)c4ccc(Cl)cc4)cc32)cc1 [Example 132] | > 10 µM | > 10 µM | 

Row | SMILES | EC50 [1] | EC50 [2, 3] | EC50 ([2]; CB1 HEK_cAMP EC50, HEK cells)
19 | NC(=O)c1ccc(Cn2c(C3CC3)nc3ccc(C(c4ccc(Cl)cc4)c4ccc(Cl)cc4)cc32)cc1 [Example 133] | 3.5 µM | 0.812 µM | 
20 | NC(=O)[C@H]1CC[C@H](n2c(C3CC3)nc3ccc(C(c4ccc(Cl)cc4)c4ccc(Cl)cc4)cc32)CC1 [Example 135] | > 10 µM | 0.0532 µM | 
21 | NC(=O)[C@H]1CC[C@@H](n2c(C3CC3)nc3ccc(C(c4ccc(Cl)cc4)c4ccc(Cl)cc4)cc32)CC1 [Example 136] | 9.1 µM | 0.032 µM | 
22 | NC(=O)c1ccc(CN2CCC(n3c(C4CC4)nc4ccc(C(c5ccc(Cl)cc5)c5ccc(Cl)cc5)cc43)CC2)cc1 [Example 138] | 3.9 µM | 0.0139 µM | 
23 | NC(=O)c1cccc(CN2CCC(n3c(C4CC4)nc4ccc(C(c5ccc(Cl)cc5)c5ccc(Cl)cc5)cc43)CC2)c1 [Example 141] | > 10 µM | 0.0033 µM | 
24 | O=C(O)COCC(c1ccc(Cl)cc1)(c1ccc(Cl)cc1)c1ccc2nc(C3CC3)n(C3CCN(S(=O)(=O)C(F)(F)F)CC3)c2c1 [Example 143] | > 10 µM | 3.92 µM | 
25 | CCOC(=O)COc1cccc(Cn2c(C3CC3)nc3ccc(C(c4ccc(Cl)cc4)c4ccc(Cl)cc4)cc32)c1 [Example 144] | 4.7 µM | 0.0152 µM | 
26 | COc1cccc(Cn2c(C3CC3)nc3ccc(C(c4ccc(Cl)cc4)c4ccc(Cl)cc4)cc32)c1 [Example 146] | > 10 µM | 0.0337 µM | 
27 | O=C(O)c1ccc(CN2CCC(n3c(C4CC4)nc4ccc(C(c5ccc(Cl)cc5)c5ccc(Cl)cc5)cc43)CC2)cc1 [Example 147] | 7.56 µM | 0.0102 µM | 
28 | O=C(O)c1ccc(C(O)(c2ccc(Cl)cc2)c2ccc3nc(C4CC4)n(C4CCN(S(=O)(=O)C(F)(F)F)CC4)c3c2)cc1 (centres unmarked) [Example 150] | > 10 µM | 0.972 µM | 
29 | O=C(O)c1ccc(S(=O)(=O)N2CCC(n3c(C4CC4)nc4ccc(C(c5ccc(Cl)cc5)c5ccc(Cl)cc5)cc43)CC2)cc1C(F)(F)F [Example 166] | 5.02 µM | 0.0037 µM | 
30 | Cc1ccc(S(=O)(=O)N2CCC(n3c(C4CC4)nc4ccc(C(c5ccc(Cl)cc5)c5ccc(Cl)cc5)cc43)CC2)cc1C(N)=O [Example 168] | > 10 µM | 0.0912 µM | 
31 | Oc1ccc(-n2c(C3CC3)nc3ccc(C(c4ccc(Cl)cc4)c4ccc(Cl)cc4)cc32)cc1 [Example 171] | > 10 µM | 0.167 µM | 
32 | NC(=O)COc1cccc(-n2c(C3CC3)nc3ccc(C(c4ccc(Cl)cc4)c4ccc(Cl)cc4)cc32)c1 [Example 172] | > 10 µM | 0.0812 µM | 
33 | CCOC(=O)COc1cccc(-n2c(C3CC3)nc3ccc(C(c4ccc(Cl)cc4)c4ccc(Cl)cc4)cc32)c1 [Example 173] | 9.2 µM | 0.0559 µM | 
34 | COC(=O)c1cccc(-n2c(C3CC3)nc3ccc(C(c4ccc(Cl)cc4)c4ccc(Cl)cc4)cc32)c1 [Example 174] | > 10 µM | 6.55 µM | 
35 | CCOC(=O)COc1ccc(Cn2c(C3CC3)nc3ccc(C(c4ccc(Cl)cc4)c4ccc(Cl)cc4)cc32)cc1 [Example 175] | 4.75 µM | 5.42 µM | 
36 | COc1ccc(Cn2c(C3CC3)nc3ccc(C(c4ccc(Cl)cc4)c4ccc(Cl)cc4)cc32)cc1 [Example 177] | 7.9 µM | 0.0967 µM | 

Further lines, with some results ahead:

Row | EC50 [1] | EC50 [2, 3] | SMILES | EC50 ([2]; CB1 HEK_cAMP EC50, HEK cells)
37 | > 10 µM | 4.34 µM | O=C(O)[C@H]1CC[C@H](n2c(C3CC3)nc3ccc(C(c4ccc(Cl)cc4)c4ccc(Cl)cc4)cc32)CC1 [Example 134] | 
38 | > 10 µM | 9 µM | O=C(O)[C@H]1CC[C@@H](n2c(C3CC3)nc3ccc(C(c4ccc(Cl)cc4)c4ccc(Cl)cc4)cc32)CC1 [Example 137] | 
39 | 5.25 µM | 0.0215 µM | NC(=O)COc1ccc(N2CCC(n3c(C4CC4)nc4ccc(C(c5ccc(Cl)cc5)c5ccc(Cl)cc5)cc43)CC2)cc1 [Example 142] | 
40 | > 10 µM | 0.0665 µM | Nc1ccc(S(=O)(=O)N2CCC(n3c(C4CC4)nc4ccc(C(c5ccc(Cl)cc5)c5ccc(Cl)cc5)cc43)CC2)cc1 [Example 151] | 
41 | 6.4 µM | 1.59 µM | O=C(O)COc1ccc(N2CCC(n3c(C4CC4)nc4ccc(C(c5ccc(Cl)cc5)c5ccc(Cl)cc5)cc43)CC2)cc1 [Example 152] | 
42 | 3.61 µM | 0.0087 µM | NC(=O)COc1cccc(N2CCC(n3c(C4CC4)nc4ccc(C(c5ccc(Cl)cc5)c5ccc(Cl)cc5)cc43)CC2)c1 [Example 153] | 
43 | 8 µM | 0.311 µM | O=C(O)COc1cccc(N2CCC(n3c(C4CC4)nc4ccc(C(c5ccc(Cl)cc5)c5ccc(Cl)cc5)cc43)CC2)c1 [Example 154] | 
44 | 3.38 µM | 0.19 µM | O=C(O)Cc1ccc(N2CCC(n3c(C4CC4)nc4ccc(C(c5ccc(Cl)cc5)c5ccc(Cl)cc5)cc43)CC2)cc1 [Example 157] | 
45 | 5.8 µM | 0.0679 µM | O=C(O)Cc1cccc(N2CCC(n3c(C4CC4)nc4ccc(C(c5ccc(Cl)cc5)c5ccc(Cl)cc5)cc43)CC2)c1 [Example 158] | 
46 | 2.11 µM | 0.008 µM | NC(=O)c1ccc(N2CCC(n3c(C4CC4)nc4ccc(C(c5ccc(Cl)cc5)c5ccc(Cl)cc5)cc43)CC2)cc1 [Example 161] | 
47 | 4.49 µM | 0.0062 µM | NC(=O)c1cccc(N2CCC(n3c(C4CC4)nc4ccc(C(c5ccc(Cl)cc5)c5ccc(Cl)cc5)cc43)CC2)c1 [Example 162] | 
48 | 7.78 µM | 0.0916 µM | O=C(O)c1cccc(N2CCC(n3c(C4CC4)nc4ccc(C(c5ccc(Cl)cc5)c5ccc(Cl)cc5)cc43)CC2)c1 [Example 163] | 
49 | > 10 µM | > 10 µM | O=C(O)COc1ccc(-n2c(C3CC3)nc3ccc(C(c4ccc(Cl)cc4)c4ccc(Cl)cc4)cc32)cc1 [Example 165] | 
50 | 7.9 µM | 0.045 µM | NC(=O)COc1ccc(-n2c(C3CC3)nc3ccc(C(c4ccc(Cl)cc4)c4ccc(Cl)cc4)cc32)cc1 [Example 169] | 
51 | 0.314 µM | 0.0044 µM | CCOC(=O)COc1ccc(-n2c(C3CC3)nc3ccc(C(c4ccc(Cl)cc4)c4ccc(Cl)cc4)cc32)cc1 [Example 170] | 
52 | > 10 µM | > 10 µM | O=C(O)COc1ccc(Cn2c(C3CC3)nc3ccc(C(c4ccc(Cl)cc4)c4ccc(Cl)cc4)cc32)cc1 [Example 176] | 

— patent US20190031618A1, “BENZIMIDAZOLE DERIVATIVES USEFUL AS CB-1 INVERSE AGONISTS” (Janssen Pharmaceutica NV, priority 2015, published 2019)
